Ends that are not written are not given here.

The target in one assay is T1, CD95/PLCγ1 (Homo sapiens, UniProt P19174).
T1 construct: endogenous in cells; host or cells: CEM (human leukemic T-cell line)
T1 sequence (P19174 2-1290 limits assumed): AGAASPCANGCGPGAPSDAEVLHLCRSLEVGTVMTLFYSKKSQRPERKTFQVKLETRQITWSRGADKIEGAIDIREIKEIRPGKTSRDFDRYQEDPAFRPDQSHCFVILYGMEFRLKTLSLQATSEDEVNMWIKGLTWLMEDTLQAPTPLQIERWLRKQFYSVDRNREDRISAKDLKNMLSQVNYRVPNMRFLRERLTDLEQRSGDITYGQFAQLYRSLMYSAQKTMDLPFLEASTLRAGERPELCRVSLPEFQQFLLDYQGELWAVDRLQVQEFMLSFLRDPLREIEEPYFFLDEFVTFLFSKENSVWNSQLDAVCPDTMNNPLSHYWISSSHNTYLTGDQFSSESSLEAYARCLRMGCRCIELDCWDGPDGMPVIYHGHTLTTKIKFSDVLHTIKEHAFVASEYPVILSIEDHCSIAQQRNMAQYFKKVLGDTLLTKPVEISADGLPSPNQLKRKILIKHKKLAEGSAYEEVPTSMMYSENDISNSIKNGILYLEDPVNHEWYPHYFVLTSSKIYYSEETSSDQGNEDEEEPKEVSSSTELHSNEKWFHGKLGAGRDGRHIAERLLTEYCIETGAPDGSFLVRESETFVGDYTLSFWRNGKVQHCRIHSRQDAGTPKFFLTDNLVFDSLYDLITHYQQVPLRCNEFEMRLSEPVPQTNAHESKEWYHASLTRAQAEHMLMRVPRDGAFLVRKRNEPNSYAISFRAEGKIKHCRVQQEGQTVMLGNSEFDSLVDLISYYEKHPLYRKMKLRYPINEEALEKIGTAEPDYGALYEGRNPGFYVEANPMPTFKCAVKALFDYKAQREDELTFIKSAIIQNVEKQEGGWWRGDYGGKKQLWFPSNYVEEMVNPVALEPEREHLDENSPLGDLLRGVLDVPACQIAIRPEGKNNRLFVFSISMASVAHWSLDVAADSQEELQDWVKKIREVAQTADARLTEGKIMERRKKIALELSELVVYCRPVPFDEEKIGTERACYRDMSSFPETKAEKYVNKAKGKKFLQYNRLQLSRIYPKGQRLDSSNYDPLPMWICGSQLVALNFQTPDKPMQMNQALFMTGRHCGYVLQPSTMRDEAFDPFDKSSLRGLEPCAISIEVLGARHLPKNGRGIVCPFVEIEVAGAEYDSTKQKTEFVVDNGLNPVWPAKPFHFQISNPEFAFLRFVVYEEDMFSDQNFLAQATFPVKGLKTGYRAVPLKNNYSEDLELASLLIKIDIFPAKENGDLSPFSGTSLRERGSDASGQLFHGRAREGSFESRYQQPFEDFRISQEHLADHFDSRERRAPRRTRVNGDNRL
As to the kind of experiment: PLCγ1 recruitment to CD95 (immunoprecipitation and immunoblotting). It counts as cell-based. The following applies: HEK cells co-transfected with PLCγ1 and construct. On the procedure: T-cells (5×10^7 cells per condition) were stimulated with Ig-CD95L or cl-CD95L (100 ng/mL) for indicated times at 37° C. Cells were lysed, incubated with APO1.3 (1 ug/mL) for 15 min at 4° C. and CD95 was immunoprecipitated using A/G protein-coupled magnetic beads (Ademtech, Pessac, France) for 1 h. After extensive washing, the immune complex was resolved by SDS-PAGE and immunoblotting was performed with indicated antibodies.
Cells were lyzed for 30 minutes at 4° C. in lysis buffer (25 mM HEPES pH 7.4, 1% v/v Triton X-100, 150 mM NaCl, 2 mM EGTA supplemented with a mix of protease inhibitors (Sigma-Aldrich)). Protein concentration was determined by the bicinchoninic acid method (PIERCE, Rockford, Ill., USA) according to the manufacturer's protocol. Proteins were separated on a 12% SDS-PAGE and transferred to a nitrocellulose membrane (GE Healthcare, Buckinghamshire, England). The membrane was blocked 15 minutes with TBST (50 mM Tris, 160 mM NaCl, 0.05% v/v Tween 20, pH 7.8) containing 5% w/v dried skimmed milk (TBSTM). Primary antibody was incubated overnight at 4° C. in TBSTM. The membrane was intensively washed (TBST) and then the peroxydase-labeled anti-rabbit or anti-mouse (SouthernBiotech, Birmingham, Ala., US) was added for 45 minutes. The proteins were visualized with the enhanced chemiluminescence substrate kit (ECL, GE Healthcare).
For orientation: Immunoblotting shows a protein as a band on a membrane.

The test system of assay [1] is CD95-mediated Ca^2+ response. As to the kind of experiment: Calcium response to cl-CD95L in activated PBL. It counts as cell-based, human. The following applies: activated PBL pre-incubated 1 hr, 10 μM peptide; 100 ng/ml cl-CD95L. On the procedure:
(§1) Cells were loaded with Fura2-AM (1 μM) at resting temperature for 30 min in Hank's Balanced Salt Solution (HBSS). After washing with HBSS, the cells were incubated for 15 min in the absence of Fura2-AM to complete de-esterification of the dye. Cells were placed in a thermostated chamber (37° C.) of an inverted epifluorescence microscope (Olympus IX70) equipped with a ×40, UApo/340-1.15 W water-immersion objective (Olympus), and fluorescence micrograph images were captured at 510 nm and at 12-bit resolution by a fast-scan camera (CoolSNAP fx Monochrome, Photometrics). To minimize UV light exposure, 4×4 binning function was used. Fura2-AM was alternately excited at 340 and 380 nm, and ratios of the resulting images (excitations at 340 and 380 nm and emission filter at 520 nm) were produced at constant intervals (5 s or 10 s according to the stimulus). […] Fluorescent images were pseudocolored using the IMD display mode in MetaFluor and assembled without further manipulation in Photoshop (Adobe). Raw data were acquired with MetaFluor and graphed in Origin (OriginLab). [Ca^2+]i was calculated using the following equation: [Ca^2+]i=Kd(R−Rmin)/(R−Rmax)×Sf2/Sf1, where Kd is the Fura2-AM dissociation constant at the two excitation wavelengths (F340/F380); Rmin is the fluorescence ratio in the presence of minimal calcium, obtained by chelating Ca^2+ with 10 mM EGTA; Rmax is the fluorescence ratio in the presence of excess calcium, obtained by treating cells with 1 μM ionomycin; Sf2 is the fluorescence of the Ca^2+-free form; and Sf1 is the fluorescence of the Ca^2+-bound form of Fura2-AM at excitation wavelengths of 380 and 340 nm, respectively. In some experiments cells were placed in a Ca^2+-free medium consisting of the HBSS described above in which CaCl2 was omitted and 100 μM EGTA was added in order to chelate residual Ca^2+ ions. This medium was added to the cells just before recording to avoid leak of the intracellular calcium stores.
All cells were purchased from ATCC (Molsheim Cedex, France). T leukemic cell lines CEM, H9 and Jurkat were cultured in RPMI supplemented with 8% heat-inactivated FCS (v/v) and 2 mM L-glutamine at 37° C. in a 5% CO2 incubator. CEM-IRC cell expressing a low amount of plasma membrane CD95 was described in (Beneteau et al., 2007; Beneteau et al., 2008). […]
T cells were loaded with Fura-PE3-AM (1 μM) at room temperature for 30 min in Hank's Balanced Salt Solution (HBSS). […] Cells were placed in the temperature controlled chamber (37° C.) of an inverted epifluorescence microscope (Olympus IX70) equipped with an ×40 UApo/340-1.15 W water-immersion objective (Olympus), and fluorescence micrograph images were captured at 510 nm and 12-bit resolution by a fast-scan camera (CoolSNAP fx Monochrome, Photometrics). […]

Assay [2] relates to CD95-mediated Ca^2+ response. As to the kind of experiment: Calcium response to cl-CD95L in MEF. Format: cell-based. Particulars: MEFs pre-incubated 1 hr, 10 μM peptide; 100 ng/ml cl-CD95L. How it is done: Cells were loaded with Fura2-AM (1 μM) at resting temperature for 30 min in Hank's Balanced Salt Solution (HBSS). After washing with HBSS, the cells were incubated for 15 min in the absence of Fura2-AM to complete de-esterification of the dye. Cells were placed in a thermostated chamber (37° C.) of an inverted epifluorescence microscope (Olympus IX70) equipped with a ×40, UApo/340-1.15 W water-immersion objective (Olympus), and fluorescence micrograph images were captured at 510 nm and at 12-bit resolution by a fast-scan camera (CoolSNAP fx Monochrome, Photometrics). To minimize UV light exposure, 4×4 binning function was used. Fura2-AM was alternately excited at 340 and 380 nm, and ratios of the resulting images (excitations at 340 and 380 nm and emission filter at 520 nm) were produced at constant intervals (5 s or 10 s according to the stimulus). […] Fluorescent images were pseudocolored using the IMD display mode in MetaFluor and assembled without further manipulation in Photoshop (Adobe). Raw data were acquired with MetaFluor and graphed in Origin (OriginLab). […]

In assay [3] the test system is CD95-mediated Ca^2+ response. As to the kind of experiment: Calcium response to cl-CD95L in Jurkat cells (Fura2/FuraPE3 video imaging). It counts as cell-based. The following applies: Jurkat pre-incubated 1 hr, 10 μM peptide; 100 ng/ml cl-CD95L. How it is done:
as §1
T cells were loaded with Fura-PE3-AM (1 μM) at room temperature for 30 min in Hank's Balanced Salt Solution (HBSS). After washing, the cells were incubated for 15 min in the absence of Fura-PE3-AM to complete de-esterification of the dye. Cells were placed in the temperature controlled chamber (37° C.) of an inverted epifluorescence microscope (Olympus IX70) equipped with an ×40 UApo/340-1.15 W water-immersion objective (Olympus), and fluorescence micrograph images were captured at 510 nm and 12-bit resolution by a fast-scan camera (CoolSNAP fx Monochrome, Photometrics). To minimize UV light exposure, a 4×4 binning function was used. Fura-PE3 was alternately excited at 340 and 380 nm, and the ratios of the resulting images (emission filter at 520 nm) were produced at constant intervals (10 seconds). The Fura-PE3 ratio (Fratio 340/380) images were analyzed offline with Universal Imaging software, including Metafluor and Metamorph. Fratio reflects the intracellular Ca^2+ concentration changes. Each experiment was repeated 3 times, and the average of more than 20 single-cell traces was analyzed.

Regarding “CD95^(175-210)-mCherry: construct consisting of CD95 amino acids 175 to 210 (calcium-inducing domain) fused to mCherry, expressed in HEK cells (KRKEVQKTCRKHRKENQGSHESPTLNPETVAINLSD-mCherry)”, in the assay with CD95/PLCγ1, the “interaction with PLCγ1 (co-immunoprecipitation)” value was “interacted with PLCγ1”. Besides, the “PLCγ1 recruitment to CD95” value with CD95/PLCγ1 (CD95L 100 ng/mL) is given as “inhibited its recruitment to CD95”.

For “TAT peptide control: TAT control peptide, SEQ ID NO: 5 (RKKRRQRRRGGSIELDDPRPR; TAT-CONTROL) [reference compound]”, the “calcium response to cl-CD95L” value in assay [1] and in assay [3] was “did not significantly modify the calcium response” in each case. For the same substance, the “initial phase of the calcium response to cl-CD95L” value in assay [2] is “did not modify the initial phase”.

For the origin of these results see patent US10189887B2, “Polypeptides and uses thereof for reducing CD95-mediated cell motility” (INSERM (INSTITUT NATIONAL DE LA SANTÉ ET DE LA RECHERCHE …, priority 2014, dated 2019).
